According to patent publication US20150018325A1, “METHOD FOR LATE POST COITAL CONTRACEPTION USING ULIPRISTAL ACETATE” (LABORATOIRE HRA-PHARMA, priority 2010, published 2015):
Where “and” joins values, the source holds several entries; their conditions need not be identical. Identical values can stand only once. Entries after “also recorded” stand apart in the source; their conditions may differ.

Key:
[1] = tested on: women presenting 0-120 hours after unprotected intercourse; assay: Prospective multicenter, single-blind randomized study of ulipristal acetate versus levonorgestrel as emergency contraception 0-120 hours after unprotected intercourse (Example 2); assay type: in vivo
Method: This was a prospective, single-blind (subject and sponsor blind, investigator not blind), randomized, multicenter, 2-arm parallel comparative study designed to evaluate the efficacy of a single dose of ulipristal acetate (30 mg tablets) compared to levonorgestrel (1.5 mg) administered for EC within 120 hours after unprotected intercourse. It was performed in 10 centers in Europe and 25 centers in the US. Women ([…]), with regular menstrual cycles (between 24 and 35 days and intra-individual variations less than or equal to 5 days), who presented for EC within 120 hours after unprotected intercourse at a participating study site and who met the inclusion/exclusion criteria were enrolled into the study after they signed informed consent form. Subjects were excluded from the study in case of ongoing pregnancy or breast-feeding or current use of hormonal contraception or IUD. The study medication (ulipristal acetate 30 mg or levonorgestrel 1.5 mg) was administered according to a random allocation procedure generated electronically. Treatment was administered orally immediately after all eligibility criteria (including negative urine pregnancy test) had been verified. At follow-up visit (5-7 days after expected onset of menses) a high-sensitivity urine pregnancy test was systematically performed. If the urine pregnancy was positive, this was confirmed by a serum β-hCG test. The pre-treatment serum specimen was also assayed for β-hCG to verify whether the pregnancy pre-dated intake of the study drug. Confirmed pregnancies were further evaluated by scrum quantitative hCG(s) and transvaginal ultrasound(s) to determine the estimated fertilization date. Based on previous similar clinical trials, pregnancy rates in the ulipristal acetate and levonorgestrel group were expected to be 1% and 1.7% respectively. […] For this comparison, the non-inferiority margin was set to 1.6 in odds ratio (a non-inferiority margin of 1.6 in odds ratio is equivalent to a non-inferiority margin of 1% in percent point with an assumed pregnancy rate with levonorgestrel of 1.7%) with a type I error rate of 5% (two-sided) and 85% power. In order to compensate for an anticipated lost to follow-up rate of 10%, 910 patients per group had to be included in the 0-72 hour time interval. Furthermore, recruitment of patients requesting emergency contraception between 72 h and 120 h was estimated to represent 1 out of 10 patients. Therefore, taking into account recruitment in the 72-120 h interval, 1022 patients per group were to be randomized for a total of 2044 patients. […] In order to ensure unbiased evaluation of pregnancy data, an independent, autonomous DSMB composed of two experts in the field of gynecology, one methodologist and one expert in ethical questions was established to review incidence of pregnancy with respect to unacceptability threshold and give recommendations during the course of the clinical trial. In addition, the DSMB assessed whether each pregnancy was “compatible” or “not compatible” with treatment failure based on available data.

[2] = used within 72 hours of UPI; cited from earlier work
[3] = tested on: women treated with ulipristal acetate in the two trials; assay: Pooled efficacy analysis of Example 1 and Example 2 (Example 3); assay type: in vivo; conditions: mITT pooled population
Source text: When the efficacy data of women treated with ulipristal acetate in the two trials (Example 1 and Example 2) are grouped in a pooled analysis, further evidence of the efficacy of the method is provided.

[4] = tested on: women presenting 48-120 hours after unprotected intercourse; assay: Prospective multicenter, open label study of ulipristal acetate as emergency contraception 48-120 hours after unprotected intercourse (Example 1); assay type: in vivo; conditions: for Observed Pregnancy Rate (%): single 30 mg dose
Method: Women 18 and older who presented for emergency contraception at family planning clinics located in the United States, 48-120 hours after UPI and who met the inclusion/exclusion criteria were enrolled into the study after signing the IRB approved informed consent. The inclusion criteria were regular menstrual cycles 24-35 (+/−5) days in length, no current use of hormonal contraception, willingness not to use hormonal contraception until study completion, and agreement to use barrier methods of contraception from enrollment to study completion. Exclusion criteria included pregnancy, breastfeeding, IUD, tubal ligation or partner vasectomy, and uncertainty about recent menstrual history.
A total of up to three visits were scheduled over the course of the study. The first visit, considered Day 1, included the screening and treatment phases. A high sensitivity urine pregnancy test (level of detection 20 mIU/ml) was performed and a blood sample was taken and stored for later serum quantitative β-hCG testing to exclude pre-existing pregnancy if a pregnancy was detected during the study.
Women were provided daily diaries in which to record further acts of intercourse, contraception used, vaginal spotting or bleeding, concomitant medication and adverse events during study duration.
At follow-up visit (5-7 days after expected onset of menses) a high-sensitivity urine pregnancy test was systematically performed. If the urine pregnancy was positive, this was confirmed by a serum β-hCG test. The pre-treatment serum specimen was also assayed for β-hCG to verify whether the pregnancy pre-dated intake of the study drug. Confirmed pregnancies were further evaluated by scrum quantitative hCG(s) and transvaginal ultrasound(s) to determine the estimated fertilization date.
Women could enroll in the study more than once but they must have completed prior study participation before re-enrolling.
The primary efficacy measurement was the pregnancy rate, defined as the number of pregnancies after administration of ulipristal acetate for EC divided by the number of women treated. The primary efficacy analysis compared this pregnancy rate to the pregnancy rate that would have been expected in the absence of EC treatment, which was calculated according to Trussell's method (Trussell et al, 1998) using the pooled recognizable set of conception probabilities and the estimated cycle day of UPI based on self-reported date of last menstrual period, cycle length and date of UPI.
The main secondary efficacy analysis compared the upper bound of the 95% confidence interval of the observed pregnancy rate to a clinical irrelevance threshold of 4%. This threshold corresponds to a reduction by half of the expected 8% pregnancy rate in the absence of contraception as observed in previous international studies (Von Hertzen et al, 1998; Piaggio, 1999; Von Hertzen et al, 2002). The study was to be considered a success only if both the primary efficacy and the main secondary analyses were conclusive. Other secondary analyses included calculation of the prevented fraction, defined as the number of pregnancies prevented (expected minus observed) divided by the number of pregnancies expected, and analysis of trend in pregnancy rates over time (by 24-hour interval) using a logistic regression model.
The population analyzed for primary efficacy excluded women who were lost to follow-up and women ages 36 and older due to reduced fertility in this age category based upon FDA guidance. Further participations in the study allowed by protocol were also excluded from primary efficacy evaluation, as well as pregnancies that were determined as not compatible with study drug failure by a Data Safety Monitoring Board (DSMB) consisting of independent experts.
Study enrolment was stopped once 1200 subjects meeting the criteria for the primary efficacy analysis had completed the study.

[5] = 0-72 h mITT, ulipristal acetate 30 mg or levonorgestrel 1.5 mg single oral dose
[6] = >24 to <=48 hours relative to the previous 24 hrs time interval, mITT
[7] = >48 to <=72 hours relative to the previous 24 hrs time interval, mITT
[8] = >72 to <=96 hours relative to the previous 24 hrs time interval, mITT
[9] = mITT, unprotected intercourse within 72 hours of EC intake (p=0.253)
[10] = mITT, unprotected intercourse within 120 hours of EC intake (p=0.127)
[11] = 48-72 h after UPI, mITT population
[12] = >72-96 h after UPI, mITT population
[13] = >96-120 h after UPI, mITT population

## C#C[C@]1(O)CC[C@H]2[C@@H]3CCC4=CC(=O)CC[C@@H]4[C@H]3CC[C@@]21CC [levonorgestrel]
[1]; 0-72 h mITT (n = 1694)
  Pregnancy Rate n: 22
[1]; [5]
  Pregnancy Rate (%): 2.59%
[1]; 0-72 h mITT, ulipristal acetate 30 mg or levonorgestrel 1.5 mg single oral dose, listed as Levonorgestrel
  Pregnancy Rate (%): 2.6%
[1]; 0-120 h mITT
  Pregnancy Rate (%): 2.6%
[1]; 0-120 h mITT (n = 1899)
  Pregnancy Rate n: 25
[1]; 72-120 h mITT
  Pregnancy Rate (%): 2.8%
[1]; 72-120 h mITT (n = 203)
  Pregnancy Rate n: 3
[1]; [6]
  Odds ratio: 0.73
[1]; [7]
  Odds ratio: 1.17
[1]; [8]
  Odds ratio: 1.08
[1]; >96 to <=120 hours relative to the previous 24 hrs time interval, mITT
  Odds ratio: 1.11
[1]; [9]
  prevented expected pregnancies: 52.2%
[1]; [10]
  prevented expected pregnancies: 52.8%

## CC(=O)O[C@]1(C(C)=O)CC[C@H]2[C@@H]3CCC4=CC(=O)CCC4=C3[C@@H](c3ccc(N(C)C)cc3)C[C@@]21C [ulipristal acetate, 17α-acetoxy-11β-[4-N,N-dimethylamino-phenyl)-19-norpregna-4,9-diene-3,20-dione]
[2]
  efficacy for preventing pregnancy compared with levonorgestrel: as effective as levonorgestrel; also recorded: as efficacious as levonorgestrel
[3]; 0-24 h
  Overall observed pregnancy rate (%) (pooled): 1.60%
[3]; >24-48 h
  Overall observed pregnancy rate (%) (pooled): 2.07%
[3]; >48-72 h
  Overall observed pregnancy rate (%) (pooled): 2.16%
[3]; >72-96 h
  Overall observed pregnancy rate (%) (pooled): 1.76%
[3]; >96-120 h
  Overall observed pregnancy rate (%) (pooled): 1.04%
[4]; [11]
  Effectiveness (Prevented Fraction): 61.9%
  Observed Pregnancy Rate (%): 2.3%
[4]; [12]
  Effectiveness (Prevented Fraction): 57.9%
  Observed Pregnancy Rate (%): 2.1%
[4]; [13]
  Effectiveness (Prevented Fraction): 75.0%
  Observed Pregnancy Rate (%): 1.3%
[4]; All (48-120 h after UPI), mITT / Primary Efficacy Population
  Observed Pregnancy Rate (%): 2.1%
[4]; All (48-120 h after UPI), mITT population, expected pregnancies by Trussell's method
  Effectiveness (Prevented Fraction): 62.3%
[4]; Safety Population of 1533 women, 48-120 h after UPI
  observed pregnancy rate: 1.9%
[4]; all women enrolled, before DSMB exclusion of 3 pregnancies
  pregnancies detected at follow-up: 29
[4]; by 24-hour interval, 48-120 h after UPI, p=0.2490
  linear trend of pregnancy rates over time (logistic regression model): no evidence of change in efficacy over time
[1]; 0-72 h mITT (n = 1694)
  Pregnancy Rate n: 15
[1]; [5]
  Pregnancy Rate (%): 1.78%
[1]; 0-72 h mITT, ulipristal acetate 30 mg or levonorgestrel 1.5 mg single oral dose, listed as Ulipristal acetate
  Pregnancy Rate (%): 1.8%
[1]; 0-120 h mITT
  Pregnancy Rate (%): 1.60%
[1]; 0-120 h mITT (n = 1899)
  Pregnancy Rate n: 15
[1]; 0-120 h mITT, listed as Ulipristal acetate
  Pregnancy Rate (%): 1.6%
[1]; 72-120 h mITT
  Pregnancy Rate (%): 0.0%
[1]; 72-120 h mITT (n = 203)
  Pregnancy Rate n: no pregnancy was observed
[1]; 72-120 h mITT (n = 203), listed as Ulipristal acetate
  Pregnancy Rate n: 0
[1]; >0 to <=24 hours from unprotected intercourse to treatment, mITT
  Pregnancy Rate (%): 1.6%
[1]; >24 to <=48 hours from unprotected intercourse to treatment, mITT
  Pregnancy Rate (%): 2.13% and 2.1%
[1]; [6]
  Odds ratio: 1.33
[1]; >48 to <=72 hours from unprotected intercourse to treatment, mITT
  Pregnancy Rate (%): 1.48% and 1.5%
[1]; [7]
  Odds ratio: 0.69
[1]; [8]
  Odds ratio: 0.00
[1]; [9]
  prevented expected pregnancies: 68.1%
[1]; [10]
  prevented expected pregnancies: 72.2%
[1]; p<0.05 one-sided randomization test within 120 hours, p<0.05 two-sided between 72 and 120 hours, mITT
  pregnancies prevented compared to the expected pregnancy rate, ulipristal acetate versus levonorgestrel: significantly more pregnancies were prevented with ulipristal acetate than levonorgestrel
